The values that follow are results of earlier work, collected in patent US9683008B2, “Synthetic bile acid compositions and methods” (Kythera Biopharmaceuticals, Inc., priority 2010, dated 2017).

The structures appear in SMILES notation.

For data set [1] the following is noted: neutral pH.
The next data set addresses albumin (Homo sapiens, UniProt P02768). The conditions noted are these: 0.4 mg/mL deoxycholate (comparable to the fasting state), in the presence of 26 mg/mL of albumin.

Chain of albumin (P02768 25-609): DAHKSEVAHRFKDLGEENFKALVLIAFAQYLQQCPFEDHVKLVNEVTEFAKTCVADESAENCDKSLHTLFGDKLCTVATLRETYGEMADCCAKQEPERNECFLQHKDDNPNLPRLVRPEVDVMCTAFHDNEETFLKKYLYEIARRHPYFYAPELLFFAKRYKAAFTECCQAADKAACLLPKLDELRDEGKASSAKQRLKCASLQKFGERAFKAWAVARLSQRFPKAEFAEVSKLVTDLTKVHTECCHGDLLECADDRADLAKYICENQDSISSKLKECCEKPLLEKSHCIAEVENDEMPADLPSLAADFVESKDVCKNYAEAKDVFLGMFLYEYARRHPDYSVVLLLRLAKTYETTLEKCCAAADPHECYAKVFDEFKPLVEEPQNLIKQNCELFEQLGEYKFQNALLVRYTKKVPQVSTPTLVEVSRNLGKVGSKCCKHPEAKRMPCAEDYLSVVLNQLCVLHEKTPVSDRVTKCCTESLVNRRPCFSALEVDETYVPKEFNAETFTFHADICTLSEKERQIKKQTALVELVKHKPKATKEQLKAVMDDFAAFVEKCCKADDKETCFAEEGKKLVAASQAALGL

`C[C@H](CCC(=O)[O-])[C@H]1CC[C@H]2[C@@H]3CC[C@@H]4C[C@H](O)CC[C@]4(C)[C@H]3C[C@H](O)[C@]12C.[Na+]` [sodium deoxycholate]: the critical micelle concentration result in data set [1] was “approximately 2.4 mg/mL”. In addition, for the setting “acetone, compared with alcohol”, the solubility in acetone result was “even less soluble”. For the same compound, the “solubility in glacial acetic acid” value (glacial acetic acid, compared with alcohol) is given as “even less soluble”. Further, the soluble in water (water) was 333 mg/mL. The bound to albumin at albumin is recorded as 98%.
